Experimental data from patent US20030232851A1, “Viral treatment” (The Procter & Gamble Company, priority 1999, published 2003).
≈ marks a conversion by molar mass, not a printed value. Where “and” joins values, the source holds several entries; their conditions need not be identical. Equal entries are not always repeated.

What was measured:
[1] = system: U937KN1272, a protease resistant strain; assay: Long term in vitro study, U937KN1272, reverse transcriptase; assay type: cell-based, HIV
Experimental: A microtiter-based reveres transcriptase (RT) reaction is utilized (Buckheit et al (1991) AIDS Research and Human Retroviruses 7:295-302). Tritiated thymidine triphosphate (NEN)(TTP) is resuspended in distilled water at 5 Ci/ml. Poly rA and oligo dT are prepared as a stock solution which is kept at −20° C. The RT reaction buffer is prepared fresh on a daily basis and consists of 125 μl 1M EGTA, 125 μl water, 125 μl Triton X-100, 50 μl Tris (pH 7.4), 50 μl 1 MDDT, and 40 μl 1M MgCl2. These three solutions are mixed together in a ratio of 1 part TTP, 2.5 parts poly rA:oligo dT, 2.5 parts reaction buffer and 4 parts distilled water. Ten microliters of this reaction mixture is placed in a round bottom microtiter place and 15 μl of virus containing supernatant is added and mixed. The plate is incubated at 37° C. for 60 minutes. Following reaction, the reaction volume is spotted onto filter mats, washed 6 times for 5 minutes each in a 5% sodium phosphate buffer, 2 times for 1 minute each in distilled water, 2 times for 1 minute each in 70% ethanol, and then dried. The dried filter mat is placed in a plastic sample bag, Betaplate scintillation fluid is added and the bag is heat sealed. Incorporated radioactivity is quantified utilizing a Wallac Microbeta scintillation counter.
Acute infection of most established human cell lines with HIV-1 results in the eventual establishment of a constitutive virus-producing chronically infected cell line. The cells can be passaged for long periods of time in culture without loss of virus production. These cells may be utilized to evaluate the effects of anti-HIV compounds on syncytium formation or to evaluate the effects of anti-HIV compounds on levels of virus production from these cells. […] Each of the cells contains an integrated HIV genome or provirus. Chronically infected CEM, H9 and U937 cell lines have been prepared and cultured by Southern Research Institute, Frederick Md. and are available from them.
CEM-SS cells chronically infected with HIV isolate, for example SKI (CEM-SKI) are cultured in RPMI1640 tissue culture medium supplemented with 10% fetal bovine serum and antibiotics. […] CEM-SKI or other infected cells with no added drug are used as the control cells. Cells are allowed to grow to a density of approximately 1×10^6 cells/ml and are then passaged at a 1:10 dilution. […] The drug concentration in the flask is then increased two-fold and the cells maintained as above.
The cell populations contain integrated copies of the HIV genome and constitutively produce HIV at relatively high levels or are latently infected and only produce virus after stimulation with phorbol esters, tumor necrosis factor or IL6 (U1 and ACH2). Reductions in virus products were observed when quantifying supernatant reverse transcriptase activity,
Similar results are obtained with U937KN1272, a protease resistant strain, reported below.

vero cells = assay: Herpes simplex testing: toxicity (TC50); design: unit not given beside the values
hepatitis B, HEPG22.2.15 = assay: In vitro virus production test of hepatitis B, DNA copy number; assay type: cell-based
HEPG22.2.15 = assay: Hepatitis B test: toxicity values; assay type: cell-based

**Q.** Which results are given for `c1csc(-c2nc3cccnc3[nH]2)c1` [2-(2-thienyl)-imidazolo [4,5-b]pyridine]?
**A.** reverse transcriptase data ([1]; 7 μg/ml, day 4): 3503; reverse transcriptase data ([1]; 7 μg/ml, day 11): 10001; reverse transcriptase data ([1]; 7 μg/ml, day 18): 14176; reverse transcriptase data ([1]; 7 μg/ml, day 25): 14084; reverse transcriptase data ([1]; 7 μg/ml, day 32): 9919; reverse transcriptase data ([1]; 7 μg/ml, day 39): 8890; reverse transcriptase data ([1]; 7 μg/ml, day 46): 9238; reverse transcriptase data ([1]; 7 μg/ml, day 53): 9074; reverse transcriptase data ([1]; 7 μg/ml, day 60): 7460; reverse transcriptase data ([1]; 7 μg/ml, day 67): 7863; reverse transcriptase data ([1]; 7 μg/ml, day 71): 8402; reverse transcriptase data ([1]; 7 μg/ml, day 74): 8976; reverse transcriptase data ([1]; 7 μg/ml, day 88): 8522; reverse transcriptase data ([1]; 7 μg/ml, day 95): 9358; reverse transcriptase data ([1]; 7 μg/ml, day 102): 9221; reverse transcriptase data ([1]; 7 μg/ml, day 109): 8245; reverse transcriptase data ([1]; 15 μg/ml, day 4): 2354; reverse transcriptase data ([1]; 15 μg/ml, day 11): 7962; reverse transcriptase data ([1]; 15 μg/ml, day 18): 11866; reverse transcriptase data ([1]; 15 μg/ml, day 25): 13386; reverse transcriptase data ([1]; 15 μg/ml, day 32): 10413; reverse transcriptase data ([1]; 15 μg/ml, day 39): 8675; reverse transcriptase data ([1]; 15 μg/ml, day 46): 8124; reverse transcriptase data ([1]; 15 μg/ml, day 53): 7645; reverse transcriptase data ([1]; 15 μg/ml, day 60): 5534; reverse transcriptase data ([1]; 15 μg/ml, day 67): 4321; reverse transcriptase data ([1]; 15 μg/ml, day 71): 5364; reverse transcriptase data ([1]; 15 μg/ml, day 74): 6974; reverse transcriptase data ([1]; 15 μg/ml, day 88): 4297; reverse transcriptase data ([1]; 15 μg/ml, day 95): 5224; reverse transcriptase data ([1]; 15 μg/ml, day 102): 5361; reverse transcriptase data ([1]; 15 μg/ml, day 109): 7833; reverse transcriptase data ([1]; 30 μg/ml, day 4): 1209; reverse transcriptase data ([1]; 30 μg/ml, day 11): 4377; reverse transcriptase data ([1]; 30 μg/ml, day 18): 6376; reverse transcriptase data ([1]; 30 μg/ml, day 25): 9293; reverse transcriptase data ([1]; 30 μg/ml, day 32): 9903; reverse transcriptase data ([1]; 30 μg/ml, day 39): 6852; reverse transcriptase data ([1]; 30 μg/ml, day 46): 2502; reverse transcriptase data ([1]; 30 μg/ml, day 53): 2760; reverse transcriptase data ([1]; 30 μg/ml, day 60): 2478; reverse transcriptase data ([1]; 30 μg/ml, day 67): 1643; reverse transcriptase data ([1]; 30 μg/ml, day 71): 4820; reverse transcriptase data ([1]; 30 μg/ml, day 74): 3270; reverse transcriptase data ([1]; 30 μg/ml, day 88): 3184; reverse transcriptase data ([1]; 30 μg/ml, day 95): 2031; reverse transcriptase data ([1]; 30 μg/ml, day 102): 3427; reverse transcriptase data ([1]; 30 μg/ml, day 109): 1356; TC50 (vero cells): 82.8; DNA Copy Number, % virus control (hepatitis B, HEPG22.2.15; 0.64 μg/ml): 75.3%; DNA Copy Number, mean (hepatitis B, HEPG22.2.15; 0.64 μg/ml): 255.6 per 3 μl; DNA Copy Number, samples 1-3 (hepatitis B, HEPG22.2.15; 0.64 μg/ml): 249.2 per 3 μl and 255.9 per 3 μl and 261.6 per 3 μl; DNA Copy Number, % virus control (hepatitis B, HEPG22.2.15; 2 μg/ml): 39.8%; DNA Copy Number, mean (hepatitis B, HEPG22.2.15; 2 μg/ml): 134.8 per 3 μl; DNA Copy Number, samples 1-3 (hepatitis B, HEPG22.2.15; 2 μg/ml): 134.5 per 3 μl and 124.2 per 3 μl and 145.8 per 3 μl; DNA Copy Number, % virus control (hepatitis B, HEPG22.2.15; 6.4 μg/ml): 8.2%; DNA Copy Number, mean (hepatitis B, HEPG22.2.15; 6.4 μg/ml): 27.9 per 3 μl; DNA Copy Number, % virus control (hepatitis B, HEPG22.2.15; 20 μg/ml): 0.8%; DNA Copy Number, mean (hepatitis B, HEPG22.2.15; 20 μg/ml): 2.7 per 3 μl; DNA Copy Number, % virus control (hepatitis B, HEPG22.2.15; 64 μg/ml): 0.1%; DNA Copy Number, mean (hepatitis B, HEPG22.2.15; 64 μg/ml): 0.4 per 3 μl; DNA Copy Number, % virus control (hepatitis B, HEPG22.2.15; 200 μg/ml): 0%; DNA Copy Number, mean (hepatitis B, HEPG22.2.15; 200 μg/ml): 0.1 per 3 μl; IC50 (hepatitis B, HEPG22.2.15; HepG2 2.2.15, first experiment): 1.6 µg/mL (≈ 7.95 µM); IC50 (hepatitis B, HEPG22.2.15; HepG2 2.2.15, replicate experiment): 10.7 µg/mL (≈ 53.2 µM); Toxicity Values, % cell control (HEPG22.2.15; 0.64 μg/ml): 108.5%; Toxicity Values, mean (HEPG22.2.15; 0.64 μg/ml): 1.359; Toxicity Values, samples 1-3 (HEPG22.2.15; 0.64 μg/ml): 1.389 and 1.334 and 1.355; Toxicity Values, % cell control (HEPG22.2.15; 2 μg/ml): 101.1%; Toxicity Values, mean (HEPG22.2.15; 2 μg/ml): 1.266; Toxicity Values, samples 1-3 (HEPG22.2.15; 2 μg/ml): 1.121 and 1.246 and 1.432; Toxicity Values, % cell control (HEPG22.2.15; 6.4 μg/ml): 101.5%; Toxicity Values, mean (HEPG22.2.15; 6.4 μg/ml): 1.271; Toxicity Values, samples 1-3 (HEPG22.2.15; 6.4 μg/ml): 1.249 and 1.157 and 1.407; Toxicity Values, % cell control (HEPG22.2.15; 20 μg/ml): 30.7%; Toxicity Values, mean (HEPG22.2.15; 20 μg/ml): 0.385; Toxicity Values, samples 1-3 (HEPG22.2.15; 20 μg/ml): 0.404 and 0.389 and 0.361; Toxicity Values, % cell control (HEPG22.2.15; 64 μg/ml): 1.4%; Toxicity Values, mean (HEPG22.2.15; 64 μg/ml): 0.017; Toxicity Values, samples 1-3 (HEPG22.2.15; 64 μg/ml): 0.017 and 0.018; Toxicity Values, % cell control (HEPG22.2.15; 200 μg/ml): 1.4%; Toxicity Values, mean (HEPG22.2.15; 200 μg/ml): 0.017; Toxicity Values, samples 1-3 (HEPG22.2.15; 200 μg/ml): 0.018 and 0.017; TC50 (HEPG22.2.15; first experiment): 16.3 µg/mL (≈ 81 µM); TC50 (HEPG22.2.15; replicate experiment): 16.8 µg/mL (≈ 83.5 µM)
